Source: publication PMC7824787, “Design, Synthesis and In Vitro Investigation of Novel Basic Celastrol Carboxamides as Bio-Inspired Leishmanicidal Agents Endowed with Inhibitory Activity against Leishmania Hsp90” (Biomolecules, 2021)
Like-named read-outs stand apart in the source and are kept apart here.

How the values were obtained:
[1] = tested on: L. infantum promastigotes; assay: Antileishmanial activity on L. infantum promastigotes (MTT); assay type: cell-based
Experimental: (§1) Promastigote stage of L. infantum (MHOM/TN/80/IPT1, kindly provided by Dr. M. Gramiccia and Dr. T. Di Muccio, ISS, Roma) and L. tropica (MHOM/SY/2012/ISS3130) were cultured in RPMI 1640 medium (EuroClone) supplemented with 15% heat-inactivated fetal calf serum (EuroClone, Milan, Italy), 20 mM HEPES, and 2 mM L-glutamine at 23 °C. The MTT (3-[4.5-dimethylthiazol-2-yl]-2.5-diphenyltetrazolium bromide) method was used to estimate the 50% inhibitory concentration (IC50), with some modifications. Compounds were dissolved in DMSO and then diluted with medium to achieve the required concentrations. Test compounds were placed in 96 wells round bottom microplates and seven serial dilutions made. Amphotericin B was used as the reference antileishmanial drug. Parasites were diluted in complete medium to 5 × 10^6 parasites/mL and 100 μL of the suspension was seeded into the plates and incubated at 23 °C for 72 h. Then 20 μL of MTT solution (5 mg/mL) was added into each well, after 3 h the plates were centrifuged, the supernatants discarded and the resulting pellets dissolved in 100 μL of lysing buffer consisting of 20% (w/v) of a solution of SDS (Sigma), 40% of N,N-dimethylformamide (Merck) in H2O. The absorbance of the obtained solutions was measured at a wavelength of 550 nm with a reference at 650 nm with a microplate spectrophotometer (Synergy 4-Biotek, Milan, Italy) and analyzed with the Gen5® software for data processing.
(§2) The results are expressed as IC50, the dose of compound that is necessary to inhibit cell growth by 50%; each IC50 value is the mean ± standard deviation of at least three separate experiments performed in duplicate.

THP-1 = assay: Cytotoxicity on THP-1 (MTT); assay type: cell-based, human; settings: read-out: Healthy Cell Lines IC50, THP-1
Experimental: (§3) Cytotoxicity was evaluated on human microvascular endothelial cells (HMEC-1, provided by the Centers for Disease Control, Atlanta, GA, USA), on immortalized mouse C57Bl/6 bone marrow derived macrophages (BMDM) from wild type lineage (generated in the laboratories of Drs. Douglas Golenbock and Kate Fitzgerald, University of Massachusetts, Worcester, MA, USA) and on a human acute monocytic leukaemia cell line (THP-1).
(§4) HMEC-1 were maintained in MCDB 131 medium (Invitrogen, Milan, Italy) supplemented with 10% fetal calf serum (HyClone), 10 ng/mL of epidermal growth factor, 1 μg/mL of hydrocortisone, 2 mM glutamine and 20 mM HEPES buffer, at 37 °C in 5% CO2. BMDM were maintained in DMEM (Euroclone) medium supplemented with 10% fetal bovine serum (HyClone, Celbio, Milan, Italy), 2 mM glutamine, and 25 mM of HEPES buffer solution (Euroclone). THP-1 were maintained in RPMI supplemented with 10% heat-inactivated FCS, 50 µM 2-mercaptoethanol, 10 µM sodium pyruvate, 20 mM HEPES, and 2 mM glutamine. In order to achieve differentiation into macrophages, cells were treated with 10 ng/mL phorbol myristate acetate (PMA) for 72 h.
(§5) For the cytotoxicity assay, cells were seeded in 96 well flat bottom tissue culture clusters (Costar, New York, NY, USA) at the following concentrations: HMEC 10^5 cell/mL, BMDM at 10^6 cell/mL, THP1 at 5 × 10^5 cell/mL. After 24 h, cells were treated with serial dilutions of test compounds in a final volume of 200 µL/well. Cell proliferation was evaluated after 72 h using the MTT assay.
(§6) The absorbances were measured with a microplate spectrophotometer (Synergy 4-Biotek) at a test wavelength of 550 nm and a reference wavelength of 650 nm. The results are expressed as IC50 as the concentration inhibiting 50% of cell growth. Each IC50 value is the mean and standard deviation of at least three separate experiments performed in duplicate.

HMEC-1 = assay: Cytotoxicity on HMEC-1 (MTT); assay type: cell-based, human; settings: read-out: Healthy Cell Lines IC50, HMEC-1
Experimental: as §3, §4, §5, §6

LbHsp90 = LbHsp90 (Leishmania braziliensis, UniProt A4HL70); assay: In vitro inhibition of the ATPase activity of LbHsp90 (Malachite Green Phosphate Assay); assay type: biochemical; settings: 7 μM LbHsp90, 27 °C, 60 min
Sequence of LbHsp90 (A4HL70 entry or part of it): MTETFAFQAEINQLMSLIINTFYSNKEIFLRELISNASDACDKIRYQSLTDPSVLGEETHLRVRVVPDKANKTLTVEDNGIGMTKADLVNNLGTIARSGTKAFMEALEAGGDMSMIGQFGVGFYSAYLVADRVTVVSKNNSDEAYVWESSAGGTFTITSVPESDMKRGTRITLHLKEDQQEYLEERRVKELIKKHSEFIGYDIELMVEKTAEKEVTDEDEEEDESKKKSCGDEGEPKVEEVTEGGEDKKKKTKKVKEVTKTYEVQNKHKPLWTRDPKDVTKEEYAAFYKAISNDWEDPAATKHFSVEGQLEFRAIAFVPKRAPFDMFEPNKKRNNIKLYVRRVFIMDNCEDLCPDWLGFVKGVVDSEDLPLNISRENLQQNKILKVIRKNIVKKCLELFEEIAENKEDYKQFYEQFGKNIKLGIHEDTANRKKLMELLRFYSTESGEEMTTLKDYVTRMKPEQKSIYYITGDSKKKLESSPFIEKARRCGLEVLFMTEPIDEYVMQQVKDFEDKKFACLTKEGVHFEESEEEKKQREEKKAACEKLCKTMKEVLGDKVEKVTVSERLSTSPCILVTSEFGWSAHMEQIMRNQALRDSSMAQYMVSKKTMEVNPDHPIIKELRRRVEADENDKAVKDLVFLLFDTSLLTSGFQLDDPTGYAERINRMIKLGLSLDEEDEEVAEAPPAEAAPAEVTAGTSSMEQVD
Source text: To evaluate in vitro the modulatory activity of CE, PR and CE caboxamides, a full-length recombinant Hsp90 from L. braziliensis (LbHsp90) was produced in E. coli BL21 DE3 harboring the pET28a_LbHsp90 coding for the C-terminal His-tagged target chaperone (genbank number: XP_001567804.1, full sequence is reported in Appendix B). Pratically, the plasmid pET28a_LbHsp90, kindly donated by professor J.C. Borges, was transformed in E. coli BL21 DE3 using the TransformAid Bacterial Transformation Kit (Thermo Fisher, Waltham, MA, USA). Subsequently, the obtained transformants were grown overnight in LB medium containing 30 μg mL^−1 kanamycin (LBkan30) and then inoculated in 1 L SB kan30 medium (Yeast extract 30 g L^−1, Tryptone 20 g L^−1, NaCl 10 g L^−1) at 37 °C and 220 rpm. When the OD600 reached 0.5–1, gene expression was induced by the addition of 2 mL of 1 M IPTG solution in water and the culture was shifted at 30 °C for 24 h. After cell harvesting by centrifugation (5000 rpm for 30 min), the cell pellet was resuspended in 20 mL of wash buffer (20 mM HEPES buffer, pH 7.0, 500 mM NaCl, 20 mM imidazole) and recombinant E. coli BL21DE3 cells were disrupted by ultrasonication. LbHsp90 was subsequently purified using a Nickel Sepharose 6 Fast Flow agarose resin (Ni-NTA) (GE Healthcare, Milan, Italy) as follows. Soluble protein fraction was separated from cell debris by centrifugation (10,000 rpm for 30min) after cell ultrasonication, and clear lysates were incubated with the Ni-NTA resin for 90 min at 4 °C under mild shaking and loaded onto a glass column (10 × 110 mm). The resin was then washed with 10mL of wash buffer and His-tagged LbHsp90 was eluted using a 3 step gradient (10 mL washing buffer containing 100, 200, and 300 mM imidazole, respectively) and dialyzed against 20 mM HEPES buffer (20 mM, pH 7.5), at 4 °C overnight. The protein content was measured using the Bio-Rad Protein Assay (Hercules, CA, USA) according to the Bradford method and the protein purity was verified by SDS-PAGE analysis (10% T, 2.6% C). It is worth noting that to avoid interferences with the assays described below, proteins were purified and conserved in HEPES buffer (20 mM, pH 7.5) in place of the standard PB-buffer. Reported data are the mean of two experiments run in duplicate.
Modulatory activity toward the ATPase cycle of LbHsp90 was determined using a Malachite Green Phosphate Assay Kit (Catalog Number MAK307, Sigma-Aldrich®, St. Louis, MO, USA). Analyses were run in a 96-well plate directly following the quantitative formation of a green complex between Malachite Green, molybdate, and free orthophosphate (Pi) produced by ATP hydrolysis catalyzed by the chaperone. Color formation from the reaction was measured on a plate reader at 620 nm. Briefly, the IC50 of CE and its derivatives were extrapolated from a set of dose-response curves obtained by calculating the amount of Pi produced by LbHsp90 in the presence of different compounds concentrations.
Reactions were run in HEPES buffer (20 mM, pH 7.5) containing 3 mM MgCl2 and 50 mM KCl in the presence of different compounds concentrations ([…]), LbHsp90 (7 μM) and ATP (25 mM) at 27 °C for 60 min. OD620 was measured 30 min after Malachite Green reactants addition.
LbHsp90 native activity was measured by conducting the reaction in the presence of just LbHsp90 and ATP and extrapolating the concentration of Pi obtained.
Three sets of control experiments, (1) ATP background hydrolysis, (2) compounds-related interferences and (3) protein-related background coloration, were run as follow: • (1) ATP (25 mM) incubated at 27 °C for 60 min • (2) Compounds (different concentrations) incubated with ATP (25 mM) at 27 °C for 60 min • (3) LbHsp90 (7 μM) at 27 °C for 60 min
The in vitro performances of CE, PR and the carboxamides 1–11 (Figure 4) as potential inhibitors of the Leishmania braziliensis Hsp90 were investigated using Sigma-Aldrich® Malachite Green Phosphate Assay Kit. […]

BMDM = assay: Cytotoxicity on BMDM (MTT); assay type: cell-based, mouse; settings: 72 h, read-out: Healthy Cell Lines IC50, BMDM
Experimental: as §3, §4, §5, §6

L. tropica promastigotes = assay: Antileishmanial activity on L. tropica promastigotes (MTT); assay type: cell-based
Experimental: as §1, §2

[2] = Homo sapiens, THP-1, PMA-differentiated, 72 h, MTT
[3] = Homo sapiens, HMEC-1, 72 h, MTT
[4] = Leishmania tropica, 72 h, 23 °C, MTT, read-out: Leishmania Promastigotes IC50, L. tropica
[5] = Leishmania infantum; 72 h, 23 °C, MTT; read-out: Leishmania Promastigotes IC50, L. infantum
[6] = Leishmania tropica; 72 h, 23 °C, MTT; read-out: Leishmania Promastigotes IC50, L. tropica
[7] = 72 h, 23 °C, MTT; read-out: Leishmania Promastigotes IC50, L. tropica

Row | Compound | IC50 (THP-1; [2]) [nM] | IC50 (HMEC-1; [3]) [nM] | IC50 (LbHsp90) [nM] | IC50 (BMDM; Mus musculus, BMDM, MTT) [nM] | melting point [°C] | IC50 (L. tropica promastigotes; [4]) [nM] | IC50 [1, 5] [nM] | IC50 (L. tropica promastigotes; [6]) [nM] | IC50 (L. tropica promastigotes; [7]) [nM] | also measured
1 | CC1=C(O)C(=O)C=C2C1=CC=C1[C@@]2(C)CC[C@@]2(C)[C@@H]3C[C@](C)(C(=O)NCCCNc4ccnc5cc(Cl)ccc45)CC[C@]3(C)CC[C@]12C [compound 7, (2R,4aS,6aS,12bR,14aS,14bR)-N-(3-((7-chloroquinolin-4-yl)amino)propyl)-10-hydroxy-2,4a,6a,9,12b,14a-hexamethyl-11-oxo-1,2,3,4,4a,5,6,6a,11,12b,13,14,14a,14b-tetradecahydropicene-2-carboxamide] | 480 ± 170 | 130 ± 10 | > 125000 | 1780 ± 530 | 211.1 to 215 | 150 ± 40 | – | – | – | IC50 ([1]; Leishmania infantum, 72 h, 23 °C, MTT, read-out: Leishmania Promastigotes IC50, L. infantum): 200 ± 10 nM
2 | CC1=C(O)C(=O)C=C2C1=CC=C1[C@@]2(C)CC[C@@]2(C)[C@@H]3C[C@](C)(C(=O)NCCCN4CCCCC4)CC[C@]3(C)CC[C@]12C [compound 2, (2R,4aS,6aS,12bR,14aS,14bR)-10-hydroxy-2,4a,6a,9,12b,14a-hexamethyl-11-oxo-N-(3-(piperidin-1-yl)propyl)-1,2,3,4,4a,5,6,6a,11,12b,13,14,14a,14b-tetradecahydropicene-2-carboxamide] | 1780 ± 480 | – | > 125000 | – | – | – | 260 ± 60 | 210 ± 40 | – | –
3 | (6bS,8aS,11R,12aR,12bS,14aR)-3-hydroxy-4,6b,8a,11,12b,14a-hexamethyl-11-(((((2R,3R,4R,5S,6R)-2,4,5-trihydroxy-6-(hydroxymethyl)tetrahydro-2H-pyran-3-yl)amino)oxy)carbonyl)-7,8,8a,9,10,11,12,12a,12b,13,14,14a-dodecahydropicen-2(6bH)-one [compound 11] | – | – | 47000 ± 5000 | – | – | – | – | – | 15200 ± 2710 | IC50 ([1]; 72 h, 23 °C, MTT; read-out: Leishmania Promastigotes IC50, L. infantum): 14400 ± 1960 nM; IC50 (THP-1; PMA-differentiated, 72 h, MTT): > 15900 nM; IC50 (HMEC-1; 72 h, MTT): > 14200 nM; IC50 (BMDM; MTT): > 15900 nM
4 | COC(=O)[C@]1(C)CC[C@]2(C)CC[C@]3(C)C4=CC=C5C(=CC(=O)C(O)=C5C)[C@]4(C)CC[C@@]3(C)[C@@H]2C1 [PR, pristimerin, reference compound] | – | – | – | – | – | – | – | – | – | IC50 ([1]; Leishmania infantum, 72 h, read-out: Leishmania Promastigotes IC50, L. infantum): 260 ± 20 nM; IC50 (THP-1; Homo sapiens, THP-1, 72 h): 1100 ± 350 nM; IC50 (BMDM; Mus musculus, BMDM): 1270 ± 90 nM; IC50 (L. tropica promastigotes; Leishmania tropica, 72 h, read-out: Leishmania Promastigotes IC50, L. tropica): 240 ± 40 nM
5 | CC1=C(O)C(=O)C=C2C1=CC=C1[C@@]2(C)CC[C@@]2(C)[C@@H]3C[C@](C)(C(=O)NCSS(C)(=O)=O)CC[C@]3(C)CC[C@]12C [compound 8, S-(((2R,4aS,6aS,12bR,14aS,14bR)-10-hydroxy-2,4a,6a,9,12b,14a-hexamethyl-11-oxo-1,2,3,4,4a,5,6,6a,11,12b,13,14,14a,14b-tetradecahydropicene-2-carboxamido)methyl) methanesulfonothioate] | 2510 ± 870 | 3030 ± 10 | 67000 ± 3000 | 13900 ± 2780 | – | 2000 to 4000 | – | – | 3440 ± 1120 | –
6 | C=CCSSCCNC(=O)[C@]1(C)CC[C@]2(C)CC[C@]3(C)C4=CC=C5C(=CC(=O)C(O)=C5C)[C@]4(C)CC[C@@]3(C)[C@@H]2C1 [compound 10, (2R,4aS,6aS,12bR,14aS,14bR)-N-(2-(allyldisulfanyl)ethyl)-10-hydroxy-2,4a,6a,9,12b,14a-hexamethyl-11-oxo-1,2,3,4,4a,5,6,6a,11,12b,13,14,14a,14b-tetradecahydropicene-2-carboxamide] | 930 ± 270 | – | > 125000 | 2860 ± 170 | 173.7 to 175.1 | – | 460 ± 120 | 340 ± 210 | – | IC50 (HMEC-1; Homo sapiens, HMEC-1, 72 h): 170 ± 40 nM
